Assay results: patent publication US9393326B2, “Compositions and methods for multimodal imaging” (University Health Network, priority 2005, dated 2016)

Legend:
[1] = In vitro MR imaging in multimodal phantom
Description: The phantom and the vials were filled to capacity to minimize air-induced susceptibility artefacts. Scans were produced using a T1 weighted spin echo sequence with a repetition time (TR) of 400 ms, an echo time (TE) of 9 ms, a slice thickness of 3 mm, a FOV of 1 9.9×19.9 cm and an image carrier of 256×192 pixels. The relative signal intensity was taken over the ROI. Solutions of free signal modifying agents were also imaged as controls in both modalities.

[2] = In vitro CT imaging in multimodal phantom; details: 120 kV, 300 mA
Protocol: In vitro contrast efficacy was determined by imaging the liposome formulated signal modifying agents at varying concentrations in both CT and MR, using a multimodal imaging phantom. To minimize the amount of agent leakage from liposomes, in vitro imaging scans were performed immediately following the removal of free agents by dialysis. […] The mean attenuation in Hounsfield units was measured using circular regions of interest (ROI). Attenuation values were then plotted against signal modifying agent concentrations using linear regression analysis.

[3] = In vitro relaxometry (r1, r2); type: physicochemical; details: 20° C., 1.5 T, versus gadolinium concentration (free iohexol: [I])
Protocol: All in vitro relaxometry measurements were performed at 20° C. on a 1.5 Tesla, 20-cm-bore superconducting magnet (Nalorac Cryogenics Corp., Martinez, Calif.) controlled by an SMIS spectroscopy console (SMIS, Surrey, UK). The T1 relaxation time data were acquired using an inversion recovery (IR) sequence (45) with 35 inversion recovery time (TI) values logarithmically spaced from 1 to 32000 ms. A 10 second delay was given between each acquisition and the next inversion pulse. […] For every measurement 2000 even echoes were sampled with 8 averages. The effects of any residual transverse magnetization following the off-resonance irradiation was removed by phase-cycling the π/2 pulse (−x/x).
The T1 relaxation data were analyzed assuming mono-exponential behaviour
[formula] where S is the signal observed, M0 is the magnetization at equilibrium, t is time and T1 is the longitudinal relaxation time). All T2 decay data were plotted to a one component T2 model with a Gaussian fit on a logarithmic time scale. The r1 and r2 values were calculated from linear regression analysis of 1/T1 and 1/T2 relaxation rates versus gadolinium concentration.

SMILES | peak differential signal intensities with respect to water in MR ([1]; gadolinium 1 to 9 mmol/L) [SI] | CT attenuation (linear regression) [2] | r1 [3] [s^−1mmol^−1L] | r2 [3] [s^−1mmol^−1L] | r1 ([3]; listed as unencapsulated gadoteridol) [s^−1mmol^−1L] | average differential signal intensity in MR relative to water ([1]; iodine 0 to 17 mmol/L) [SI] | r1 ([3]; listed as iohexyl) [s^−1mmol^−1L]
CC(O)CN1CCN(CC(=O)[O-])CCN(CC(=O)[O-])CCN(CC(=O)[O-])CC1.[Gd+3] (stereo not shown) [Free Gadoteridol, gadolinium complex of 10-(2-hydroxy-propyl)-1,4,7,10-tetraazacyclododecane-1,4,7-triacetic acid] | > 600 | 11.1±0.5 HU/(mg of gadolinium) in 1 mL of HBS | 5.14 ± 0.06 | 6.21 ± 0.08 | 5.1 |  | 
CC(=O)N(CC(O)CO)c1c(I)c(C(=O)NCC(O)CO)c(I)c(C(=O)NCC(O)CO)c1I (stereo not shown) [Free Iohexol, iohexyl] |  | 29.0±0.4 HU/(mg of iodine) in 1 mL of HBS | 0.00 ± 0.00 | 0.01 ± 0.01 |  | 1.8±7.1 | 0.0
